The text below walks through data of ChEMBL document CHEMBL3244037, “6-Aryl-4H-s-triazolo[4,3-a][1,4]benzodiazepines. Influence of 1-substitution on pharmacological activity” (J Med Chem, 1979).

Assay [1] has as its system Mus musculus. The assay is described as follows: Inhibition of apomorphine-induced cage climbing in ip dosed albino CF1 mouse compound administered prior to challenge measured for 5 mins after 5 mins of challenge. It is filed as functional.
The test system of assay [2] is Mus musculus. Description: […] activity in ip dosed albino CF1 mouse assessed as potentiation of gamma-butyrolactone-induced sleep. It is filed as functional.
Assay [3] has as its system Mus musculus. Description: Inhibition of amphetamine aggregation toxicity in ip dosed albino CF1 mouse compound administered 1 hr prior to challenge measured after 2 hrs. It is filed as functional.
Assay [4] deals with Mus musculus. The assay is described as follows: Potentiation of apomorphine-induced gnawing in ip dosed albino CF1 mouse. It is filed as organism-based.
Assay [5] concerns Mus musculus. Description: Reduction of hypoxic stress in ip dosed albino CF1 mouse assessed as prolongation of hypoxic survival time. It is filed as functional.
The test system of assay [6] is Mus musculus. The assay is described as follows: Potentiation of yohimbine toxicity in ip dosed aggregated albino CF1 mouse. It is filed as organism-based.
The subject of assay [7] is Mus musculus. The assay is described as follows: Inhibition of oxotremorine-induced hypothermia in ip dosed albino CF1 mouse. It is filed as functional.
Assay [8] concerns Mus musculus. Description: Anticonvulsant activity in ip dosed albino CF1 mouse assessed as protection against pentylenetetrazole-induced clonic convulsions. It is filed as functional.
Assay [9] deals with Mus musculus. Description: Hypothermic activity in ip dosed albino CF1 mouse assessed as effect on body temperature measured after 45 mins. It is filed as functional. Particulars: 0.75 h.
Assay [10] relates to Mus musculus. Description: Anticonvulsant activity in ip dosed albino CF1 mouse assessed as inhibition of bicucullin-induced tonic extensor convulsions. It is filed as functional.

SMILES strings stand for the structures.

With `COC(=O)Cc1nnc2n1-c1ccc(Cl)cc1C(c1ccccc1)=NC2`, the median effective dose (ED50) in the assay on Mus musculus [1], in the assay on Mus musculus [2], in the assay on Mus musculus [3], in the assay on Mus musculus [4], in the assay on Mus musculus [5] and in the assay on Mus musculus [6] was above 50 mg/kg throughout. For the same molecule, the ED50 in the assay with Mus musculus [7], with Mus musculus [8], with Mus musculus [9] and in the assay with Mus musculus [10] was above 50 mg/kg each time.
For the molecule `Clc1ccccc1C1=NCc2nncn2-c2ccccc21`, the ED50 in the assay with Mus musculus [1] is above 50 mg/kg; in the assay on Mus musculus [2] it was 12.5 mg/kg; in the assay on Mus musculus [3] it was above 50 mg/kg; with Mus musculus [4], above 50 mg/kg; in the assay with Mus musculus [5], above 50 mg/kg; with Mus musculus [6], above 50 mg/kg. Besides, the ED50 with Mus musculus [7] was above 50 mg/kg; in the assay on Mus musculus [8] it was above 50 mg/kg; in the assay on Mus musculus [9] it was above 50 mg/kg; in the assay with Mus musculus [10], 42 mg/kg.
`Clc1ccc2c(c1)C(c1ccccc1)=NCc1nnc(N3CCN(c4ccccc4)CC3)n1-2`: the ED50 with Mus musculus [1], in the assay on Mus musculus [2], in the assay with Mus musculus [3], in the assay on Mus musculus [4], in the assay with Mus musculus [5] and with Mus musculus [6] was above 50 mg/kg throughout. The ED50 in the assay on Mus musculus [7], in the assay with Mus musculus [8], in the assay with Mus musculus [9] and in the assay on Mus musculus [10] was above 50 mg/kg throughout.
In the case of `OCCN1CCN(c2nnc3n2-c2ccc(Cl)cc2C(c2ccccc2)=NC3)CC1`, the median effective dose (ED50) in the assay with Mus musculus [1] is above 50 mg/kg; with Mus musculus [2], 1.6 mg/kg; in the assay with Mus musculus [3], above 50 mg/kg; in the assay with Mus musculus [4] it was 25 mg/kg; with Mus musculus [5], above 50 mg/kg; with Mus musculus [6] it was above 50 mg/kg. Moreover, the ED50 in the assay on Mus musculus [7] was above 50 mg/kg; with Mus musculus [8] it was 42 mg/kg; in the assay on Mus musculus [9], above 50 mg/kg; in the assay on Mus musculus [10] it was 8.8 mg/kg.
On to `Clc1ccc2c(c1)C(c1ccccc1)=NCc1nnc(N3CCNCC3)n1-2`, for which the 50% effective dose (ED50) with Mus musculus [1], in the assay on Mus musculus [2], with Mus musculus [3], with Mus musculus [4], with Mus musculus [5] and in the assay on Mus musculus [6] was above 50 mg/kg each time. The median effective dose (ED50) with Mus musculus [7] is 34 mg/kg; in the assay with Mus musculus [8], above 50 mg/kg; with Mus musculus [9] it was above 50 mg/kg; in the assay with Mus musculus [10], above 50 mg/kg.
For the molecule `Cc1nnc2n1-c1ccc(Cl)cc1C(c1ccccc1)=NC2` [ALPRAZOLAM], the median effective dose (ED50) in the assay on Mus musculus [1] is above 50 mg/kg; with Mus musculus [2], 0.08 mg/kg; in the assay with Mus musculus [3], above 50 mg/kg; with Mus musculus [4], above 50 mg/kg; in the assay on Mus musculus [5] it was 0.2 mg/kg; with Mus musculus [6], above 50 mg/kg. Also, the ED50 in the assay with Mus musculus [7] was above 50 mg/kg; with Mus musculus [8], 0.1 mg/kg; in the assay on Mus musculus [9] it was above 50 mg/kg; in the assay with Mus musculus [10], 0.2 mg/kg.
In the case of `CN1C(=O)CN=C(c2ccccc2)c2cc(Cl)ccc21` [DIAZEPAM], the ED50 was above 50 mg/kg in the assay on Mus musculus [1]; 0.035 mg/kg in the assay with Mus musculus [2]; above 50 mg/kg in the assay on Mus musculus [3]; above 50 mg/kg with Mus musculus [4]; 0.2 mg/kg in the assay on Mus musculus [5]; above 50 mg/kg with Mus musculus [6]. In addition, the ED50 in the assay on Mus musculus [7] is above 50 mg/kg; with Mus musculus [8], 0.1 mg/kg; with Mus musculus [9], 14.9 mg/kg; with Mus musculus [10] it was 2.6 mg/kg.
